Source: PubChem BioAssay (NCI)
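In this assay, cells in 96-well plates receive the compound at five concentrations for 48 hours. Endpoints are linearly interpolated between the surrounding concentrations. GI50: concentration for 50% inhibition of growth. TGI: total growth inhibition.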

Assays:
Experiment in all cases: NCI anticancer screen, dose series, 48 h
MDA-MB-231 breast = system: MDA-MB-231 breast
SNB-19 CNS = system: SNB-19 CNS
IGROV1 ovarian = system: IGROV1 ovarian
LOX IMVI melanoma = system: LOX IMVI melanoma
SF-295 CNS = system: SF-295 CNS
U251 CNS = system: U251 CNS
HCT-15 colon = system: HCT-15 colon
SK-MEL-5 melanoma = system: SK-MEL-5 melanoma
HS 578T breast = system: HS 578T breast
ACHN renal = system: ACHN renal
RXF 393 renal = system: RXF 393 renal
MCF7 breast = system: MCF7 breast
UO-31 renal = system: UO-31 renal
HL-60(TB) leukemia = system: HL-60(TB) leukemia
NCI/ADR-RES ovarian = system: NCI/ADR-RES ovarian
MDA-MB-435 = system: MDA-MB-435
HOP-62 NSCLC = system: HOP-62 NSCLC
TK-10 renal = system: TK-10 renal
BT-549 breast = system: BT-549 breast
NCI-H460 lung = system: NCI-H460 lung
SNB-75 CNS = system: SNB-75 CNS
CAKI-1 renal = system: CAKI-1 renal
NCI-H522 lung = system: NCI-H522 lung
K-562 leukemia = system: K-562 leukemia
SW-620 colon = system: SW-620 colon
SK-MEL-28 melanoma = system: SK-MEL-28 melanoma
OVCAR-5 ovarian = system: OVCAR-5 ovarian
UACC-257 melanoma = system: UACC-257 melanoma
SF-539 CNS = system: SF-539 CNS
786-0 renal = system: 786-0 renal
A549 NSCLC = system: A549 NSCLC
COLO 205 colon = system: COLO 205 colon
PC-3 prostate = system: PC-3 prostate
OVCAR-3 ovarian = system: OVCAR-3 ovarian
NCI-H23 lung = system: NCI-H23 lung
DU-145 prostate = system: DU-145 prostate
MOLT-4 leukemia = system: MOLT-4 leukemia
SK-OV-3 ovarian = system: SK-OV-3 ovarian
MALME-3M melanoma = system: MALME-3M melanoma
HCT-116 colon = system: HCT-116 colon
SK-MEL-2 melanoma = system: SK-MEL-2 melanoma
OVCAR-8 ovarian = system: OVCAR-8 ovarian
OVCAR-4 ovarian = system: OVCAR-4 ovarian
EKVX NSCLC = system: EKVX NSCLC
SR leukemia = system: SR leukemia
UACC-62 melanoma = system: UACC-62 melanoma
SF-268 CNS = system: SF-268 CNS
NCI-H226 lung = system: NCI-H226 lung
RPMI-8226 leukemia = system: RPMI-8226 leukemia
M14 melanoma = system: M14 melanoma
T-47D breast = system: T-47D breast
KM12 colon = system: KM12 colon
SN12C renal = system: SN12C renal
HT29 colon = system: HT29 colon
CCRF-CEM leukemia = system: CCRF-CEM leukemia
HCC-2998 colon = system: HCC-2998 colon
A498 renal = system: A498 renal
HOP-92 NSCLC = system: HOP-92 NSCLC

## Cc1ccc2c(c1)C(=O)/C(=C/c1cccc(OCC(=O)c3ccc(Cl)cc3)c1)CS2
MDA-MB-231 breast
  GI50: 8.21 µM
  TGI: 76.1 µM
SNB-19 CNS
  GI50: 19.5 µM
  TGI: 77.1 µM
IGROV1 ovarian
  GI50: 5.65 µM
  TGI: 20.4 µM
LOX IMVI melanoma
  GI50: 1.84 µM
  TGI: 3.87 µM
SF-295 CNS
  GI50: 3.17 µM
  TGI: 12.1 µM
U251 CNS
  GI50: 3.14 µM
  TGI: 13.6 µM
HCT-15 colon
  GI50: 2.74 µM
  TGI: 15.3 µM
SK-MEL-5 melanoma
  GI50: 6.95 µM
  TGI: 19.6 µM
HS 578T breast
  GI50: 1.54 µM
  TGI: 4.42 µM
ACHN renal
  GI50: 8.72 µM
  TGI: 21.2 µM
RXF 393 renal
  GI50: 16.8 µM
  TGI: 34.8 µM
MCF7 breast
  GI50: 3 µM
  TGI: 11.3 µM
UO-31 renal
  GI50: 2.93 µM
  TGI: 18.3 µM
HL-60(TB) leukemia
  GI50: 2.95 µM
  TGI: 13.4 µM
NCI/ADR-RES ovarian
  GI50: 2.68 µM
  TGI: 9.02 µM
MDA-MB-435
  GI50: 2.4 µM
  TGI: 6.26 µM
HOP-62 NSCLC
  GI50: 13 µM
  TGI: 30.6 µM
TK-10 renal
  GI50: 14.1 µM
  TGI: 39.5 µM
BT-549 breast
  GI50: 12.8 µM
  TGI: 33.8 µM
NCI-H460 lung
  GI50: 18.8 µM
  TGI: > 100 µM
SNB-75 CNS
  GI50: 6.39 µM
  TGI: 44.9 µM
CAKI-1 renal
  GI50: 12.4 µM
  TGI: 37 µM
NCI-H522 lung
  GI50: 3.94 µM
  TGI: 18.2 µM
K-562 leukemia
  GI50: 2.45 µM
  TGI: 8.2 µM
SW-620 colon
  GI50: 1.95 µM
  TGI: 4.19 µM
SK-MEL-28 melanoma
  GI50: 2.27 µM
  TGI: 4.93 µM
OVCAR-5 ovarian
  GI50: 15.7 µM
  TGI: 30 µM
UACC-257 melanoma
  GI50: 13.9 µM
  TGI: 33.3 µM
SF-539 CNS
  GI50: 17.8 µM
  TGI: 36.6 µM
786-0 renal
  GI50: 11.3 µM
  TGI: 24.6 µM
A549 NSCLC
  GI50: 33.4 µM
  TGI: > 100 µM
COLO 205 colon
  GI50: 9.31 µM
  TGI: 35.8 µM
PC-3 prostate
  GI50: 2.99 µM
OVCAR-3 ovarian
  GI50: 5.58 µM
  TGI: 18 µM
NCI-H23 lung
  GI50: 3.03 µM
  TGI: 23.4 µM
DU-145 prostate
  GI50: 21.9 µM
  TGI: > 100 µM
MOLT-4 leukemia
  GI50: 2.69 µM
  TGI: 8.32 µM
SK-OV-3 ovarian
  GI50: 25.1 µM
  TGI: 90.9 µM
MALME-3M melanoma
  GI50: 15.5 µM
  TGI: 46.1 µM
HCT-116 colon
  GI50: 1.89 µM
  TGI: 3.85 µM
SK-MEL-2 melanoma
  GI50: 8.03 µM
  TGI: 22.3 µM
OVCAR-8 ovarian
  GI50: 4.53 µM
  TGI: 24.1 µM
OVCAR-4 ovarian
  GI50: 4.07 µM
  TGI: 18.5 µM
EKVX NSCLC
  GI50: 8.65 µM
  TGI: 40.8 µM
SR leukemia
  GI50: 1.8 µM
  TGI: 4.28 µM
UACC-62 melanoma
  GI50: 9.14 µM
  TGI: 25.8 µM
SF-268 CNS
  GI50: 10.4 µM
  TGI: 33.3 µM
NCI-H226 lung
  GI50: 14.9 µM
  TGI: 31.4 µM
RPMI-8226 leukemia
  GI50: 1.85 µM
  TGI: 4.47 µM
M14 melanoma
  GI50: 4.07 µM
  TGI: 27.4 µM
T-47D breast
  GI50: 5.67 µM
  TGI: 26.5 µM
KM12 colon
  GI50: 2.64 µM
  TGI: 8.02 µM
SN12C renal
  GI50: 14.6 µM
  TGI: 62.7 µM
HT29 colon
  GI50: 2.81 µM
  TGI: 7.25 µM
CCRF-CEM leukemia
  GI50: 2.38 µM
  TGI: 6.83 µM

## COC(=O)c1cc2c([nH]c3ccccc32)c(-c2nc3ccccc3cc2CO)n1
MDA-MB-231 breast
  GI50: 40 µM
  TGI: > 100 µM
SNB-19 CNS
  GI50: > 100 µM
  TGI: > 100 µM
IGROV1 ovarian
  GI50: > 100 µM
  TGI: > 100 µM
LOX IMVI melanoma
  GI50: > 100 µM
  TGI: > 100 µM
SF-295 CNS
  GI50: > 100 µM
  TGI: > 100 µM
HCC-2998 colon
  GI50: > 100 µM
  TGI: > 100 µM
U251 CNS
  GI50: 7.1 µM
  TGI: > 100 µM
HCT-15 colon
  GI50: > 100 µM
  TGI: > 100 µM
SK-MEL-5 melanoma
  GI50: 50.3 µM
  TGI: > 100 µM
HS 578T breast
  GI50: > 100 µM
  TGI: > 100 µM
ACHN renal
  GI50: 30 µM
  TGI: > 100 µM
RXF 393 renal
  GI50: 21.6 µM
  TGI: > 100 µM
MCF7 breast
  GI50: > 100 µM
  TGI: > 100 µM
UO-31 renal
  GI50: > 100 µM
  TGI: > 100 µM
HL-60(TB) leukemia
  GI50: 24.9 µM
  TGI: 50.2 µM
A498 renal
  GI50: 30.4 µM
  TGI: > 100 µM
NCI/ADR-RES ovarian
  GI50: > 100 µM
  TGI: > 100 µM
MDA-MB-435
  GI50: > 100 µM
  TGI: > 100 µM
TK-10 renal
  GI50: > 100 µM
  TGI: > 100 µM
BT-549 breast
  GI50: > 100 µM
  TGI: > 100 µM
NCI-H460 lung
  GI50: > 100 µM
  TGI: > 100 µM
SNB-75 CNS
  GI50: 40.1 µM
  TGI: > 100 µM
CAKI-1 renal
  GI50: > 100 µM
  TGI: > 100 µM
NCI-H522 lung
  GI50: 73 µM
  TGI: > 100 µM
K-562 leukemia
  GI50: > 100 µM
  TGI: > 100 µM
SW-620 colon
  GI50: > 100 µM
  TGI: > 100 µM
SK-MEL-28 melanoma
  GI50: > 100 µM
  TGI: > 100 µM
OVCAR-5 ovarian
  GI50: > 100 µM
  TGI: > 100 µM
UACC-257 melanoma
  GI50: > 100 µM
  TGI: > 100 µM
SF-539 CNS
  GI50: 47 µM
  TGI: > 100 µM
786-0 renal
  GI50: 6.2 µM
  TGI: > 100 µM
A549 NSCLC
  GI50: > 100 µM
  TGI: > 100 µM
COLO 205 colon
  GI50: > 100 µM
  TGI: > 100 µM
HOP-92 NSCLC
  GI50: 53.5 µM
  TGI: > 100 µM
PC-3 prostate
  GI50: > 100 µM
  TGI: > 100 µM
OVCAR-3 ovarian
  GI50: > 100 µM
  TGI: > 100 µM
NCI-H23 lung
  GI50: > 100 µM
  TGI: > 100 µM
DU-145 prostate
  GI50: > 100 µM
  TGI: > 100 µM
MOLT-4 leukemia
  GI50: > 100 µM
  TGI: > 100 µM
SK-OV-3 ovarian
  GI50: 55.9 µM
  TGI: > 100 µM
MALME-3M melanoma
  GI50: > 100 µM
  TGI: > 100 µM
HCT-116 colon
  GI50: 7.93 µM
  TGI: > 100 µM
SK-MEL-2 melanoma
  GI50: > 100 µM
  TGI: > 100 µM
OVCAR-8 ovarian
  GI50: > 100 µM
  TGI: > 100 µM
OVCAR-4 ovarian
  GI50: > 100 µM
  TGI: > 100 µM
EKVX NSCLC
  GI50: > 100 µM
  TGI: > 100 µM
SR leukemia
  GI50: > 100 µM
  TGI: > 100 µM
UACC-62 melanoma
  GI50: > 100 µM
  TGI: > 100 µM
SF-268 CNS
  GI50: > 100 µM
  TGI: > 100 µM
NCI-H226 lung
  GI50: > 100 µM
  TGI: > 100 µM
M14 melanoma
  GI50: > 100 µM
  TGI: > 100 µM
T-47D breast
  GI50: > 100 µM
  TGI: > 100 µM
KM12 colon
  GI50: > 100 µM
  TGI: > 100 µM
SN12C renal
  GI50: > 100 µM
  TGI: > 100 µM
HT29 colon
  GI50: > 100 µM
  TGI: > 100 µM
CCRF-CEM leukemia
  GI50: 25.5 µM
  TGI: > 100 µM
